# Measured values from ChEMBL document CHEMBL5120863, “Sophorolipids: Anti-cancer activities and mechanisms” (Bioorg Med Chem, 2022).
# Experiments:
# MDA-MB-231 [1] = assay: Cytotoxicity against human MDA-MB-231 cells assessed as cell growth inhibition measured after 24 hrs by crystal violet staining based assay; format: functional; details: MDA-MB-231, 24 h
# HL-60 = assay: Cytotoxicity against human HL-60 cells assessed as cell growth inhibition measured after 48 hrs; format: functional, cell-based; details: HL-60, 48 h
# HeLa [2] = assay: Cytotoxicity against human HeLa cells assessed as cell growth inhibition measured after 24 hrs by MTT assay; format: functional, cell-based
# A549 [3] = assay: Cytotoxicity against human A549 cells assessed as cell growth inhibition measured after 48 hrs by MTT assay; format: functional, cell-based; details: A549, 48 h
# PANC-1 [4] = assay: Cytotoxicity against human PANC-1 cells assessed as cell growth inhibition measured after 72 hrs by MTT assay; format: functional, cell-based; details: PANC-1, 72 h
# PANC-1 [5] = assay: Cytotoxicity against human PANC-1 cells assessed as cell growth inhibition measured after 48 hrs by MTT assay; format: functional, cell-based; details: PANC-1, 48 h
# MCF7 [6] = assay: Cytotoxicity against human MCF7 cells assessed as cell growth inhibition measured after 48 hrs by MTT assay; format: functional, cell-based; details: MCF7, 48 h
# A-431 = assay: Cytotoxicity against human A-431 cells assessed as cell growth inhibition measured after 48 hrs by MTT assay; format: functional, cell-based; details: A-431, 48 h
# [7] = Cytotoxicity against human L929 cells assessed as cell growth inhibition measured after 48 hrs by MTT assay; format: toxicity, cell-based; details: mouse
# HeLa [8] = assay: Cytotoxicity against human HeLa cells assessed as cell growth inhibition measured after 48 hrs by MTT assay; format: functional, cell-based
# [9] = Cytotoxicity against human HUVEC cells assessed as cell growth inhibition measured after 48 hrs by MTT assay; format: toxicity, cell-based
# HCT-116 = assay: Cytotoxicity against human HCT-116 cells assessed as cell growth inhibition measured after 48 hrs by MTT assay; format: functional, cell-based; details: HCT-116, 48 h
# Jurkat [10] = assay: Cytotoxicity against human Jurkat cells assessed as reduction in cell viability at 25 ug/ml measured after 24 hrs; format: functional; details: dose 25 µg/ml
# [11] = Antitumor activity against human HeLa cells xenografted in BALB/c mouse assessed as reduction in tumor weight at 5 mg/kg, IG administered once daily for 12 days measured after 14 days; format: functional; set-up: scale not given: the % may be the effect or the level left; details: time 12 day
# [12] = Antitumor activity against human HeLa cells xenografted in BALB/c mouse assessed as reduction in tumor weight at 50 mg/kg, IG administered once daily for 12 days measured after 14 days; format: functional; set-up: scale not given: the % may be the effect or the level left; details: time 12 day
# [13] = Antitumor activity against human HeLa cells xenografted in BALB/c mouse assessed as reduction in tumor weight at 500 mg/kg, IG administered once daily for 12 days measured after 14 days; format: functional; set-up: scale not given: the % may be the effect or the level left; details: time 12 day
# HPAC = assay: Cytotoxicity against human HPAC cells assessed as reduction in LDH release at 100 ug/ml measured after 12 hrs by CytoTox96 nonradioactive assay; format: functional; set-up: scale not given: the % may be the effect or the level left; details: dose 100 µg/ml
# K562 = assay: Cytotoxicity against human K562 cells assessed as cell growth inhibition measured after 48 hrs; format: functional, cell-based; details: K562, 48 h
# KYSE-450 = assay: Cytotoxicity against human KYSE-450 cells assessed as cell growth inhibition measured after 24 hrs by MTT assay; format: functional, cell-based; details: KYSE-450, 24 h
# A549 [14] = assay: Cytotoxicity against human A549 cells assessed as cell growth inhibition measured after 48 hrs; format: functional, cell-based; details: A549, 48 h
# ECa-109 cell line = assay: Cytotoxicity against human Eca-109 cells assessed as cell growth inhibition measured after 24 hrs by MTT assay; format: functional, cell-based; details: ECa-109, 24 h
# MCF7 [15] = assay: Cytotoxicity against human MCF7 cells assessed as reduction in cell viability at 14.7 ug/ml measured after 24 hrs by MTT assay relative to control; format: functional; details: dose 14.7 µg/ml
# LS180 = assay: Cytotoxicity against human LS180 cells assessed as cell growth inhibition; format: functional, cell-based
# HT-29 = assay: Cytotoxicity against human HT-29 cells assessed as cell growth inhibition; format: functional, cell-based
# [16] = Cytotoxicity against human HEK293 cells assessed as cell growth inhibition measured after 24 hrs by MTT assay; format: toxicity, cell-based
# Caco-2 = assay: Cytotoxicity against human Caco2 cells assessed as cell growth inhibition measured after 24 by MTT assay; format: functional, cell-based
# MDA-MB-231 [17] = assay: Cytotoxicity against human MDA-MB-231 cells assessed as reduction in cell viability at 3.68 ug/ml measured after 48 hrs by MTT assay relative to control; format: functional; details: dose 3.68 µg/ml
# [18] = Cytotoxicity against human CCD-841CoN cells assessed as cell growth inhibition measured after 24 hrs by MTT assay; format: toxicity, cell-based
# Jurkat [19] = assay: Cytotoxicity against human Jurkat cells assessed as cell growth inhibition measured after 45 hrs; format: functional, cell-based
# THP-1 [20] = assay: Cytotoxicity against human THP-1 cells assessed as cell growth inhibition measured after 72 hrs by MTT assay; format: functional, cell-based; details: THP-1, 72 h
# [21] = Cytotoxicity against human HEK293 cells assessed as cell growth inhibition measured after 72 hrs by MTT assay; format: toxicity, cell-based
# MDA-MB-231 [22] = assay: Cytotoxicity against human MDA-MB-231 cells assessed as reduction in cell viability at 3.68 ug/ml measured after 24 hrs by MTT assay relative to control; format: functional; details: dose 3.68 µg/ml
# MCF7 [23] = assay: Cytotoxicity against human MCF7 cells assessed as reduction in cell viability at 14.7 ug/ml measured after 48 hrs by MTT assay relative to control; format: functional; details: dose 14.7 µg/ml
# Jurkat [24] = assay: Cytotoxicity against human Jurkat cells assessed as cell growth inhibition measured after 24 hrs; format: functional, cell-based
# THP-1 [25] = assay: Cytotoxicity against human THP-1 cells assessed as cell growth inhibition measured after 48 hrs by MTT assay; format: functional, cell-based; details: THP-1, 48 h
# LN-229 = assay: Cytotoxicity against human LN-229 cells assessed as cell growth inhibition measured after 48 hrs; format: functional, cell-based; details: LN-229, 48 h
# [26] = Cytotoxicity against human HEK293 cells assessed as cell growth inhibition measured after 48 hrs by MTT assay; format: toxicity, cell-based
# THP-1 [27] = assay: Cytotoxicity against human THP-1 cells assessed as cell growth inhibition measured after 24 hrs by MTT assay; format: functional, cell-based; details: THP-1, 24 h
compound,measurement,setting,value
CC(=O)OC[C@H]1O[C@H]2OC(C)/C=C/C/C=C/C/C=C\CCCCCCCC(=O)O[C@H]3[C@H](O)[C@@H](O)[C@H](O[C@@H]2[C@@H](O)[C@@H]1O)O[C@@H]3COC(C)=O (stereo partly specified),IC50,MDA-MB-231 [1],30 µM
same,IC50,HL-60,5 µg/mL
same,IC50,HeLa [2],51.5 µg/mL
CCCCCCCCCCCCCCCCO[C@@H]1O[C@H](CO)[C@@H](O)[C@H](O)[C@H]1O[C@@H]1O[C@H](CO)[C@@H](O)[C@H](O)[C@H]1O,IC50,A549 [3],236 µg/mL
same,IC50,PANC-1 [4],> 100 µg/mL
same,IC50,PANC-1 [5],113 µg/mL
same,IC50,MCF7 [6],65.7 µg/mL
same,IC50,A-431,236 µg/mL
same,IC50 at 48 h,[7],> 320 µg/mL
same,IC50,HeLa [8],16.3 µg/mL
same,IC50 at 48 h,[9],> 320 µg/mL
same,IC50,HCT-116,62.8 µg/mL
CCOC(=O)CCCCCCC/C=C\CCCCCCC(C)O[C@@H]1O[C@H](COC(C)=O)[C@@H](O)[C@H](O)[C@H]1O[C@@H]1O[C@H](COC(C)=O)[C@@H](O)[C@H](O)[C@H]1O (stereo partly specified),Activity,Jurkat [10],90%
CC(=O)OC[C@H]1O[C@H]2O[C@H]3[C@H](OC(C)CCCCCC/C=C\CCCCCCCC(=O)O[C@H]1[C@H](O)[C@H]2O)O[C@H](CO)[C@@H](O)[C@@H]3O (stereo partly specified),Activity,[11],29.9%
same,IC50,MDA-MB-231 [1],15 µM
same,Activity,[12],41.24%
same,Activity,[13],52.06%
CCOC(=O)CCCCCCC/C=C\CCCCCCC(C)O[C@@H]1O[C@H](COC(C)=O)[C@@H](O)[C@H](O)[C@H]1O[C@@H]1O[C@H](CO)[C@@H](O)[C@H](O)[C@H]1O (stereo partly specified),Activity,HPAC,27.4%
CCCCOC(=O)CCCCCCC/C=C\CCCCCCC(C)O[C@@H]1O[C@H](COC(C)=O)[C@@H](O)[C@H](O)[C@H]1O[C@@H]1O[C@H](COC(C)=O)[C@@H](O)[C@H](O)[C@H]1O (stereo partly specified),Activity,Jurkat [10],99%
CC(=O)OC[C@H]1O[C@H]2OC(C)CCCCCCCCCCCCCCCC(=O)O[C@H]3[C@H](O)[C@@H](O)[C@H](O[C@@H]2[C@@H](O)[C@@H]1O)O[C@@H]3COC(C)=O (stereo partly specified),IC50,MDA-MB-231 [1],15 µM
same,IC50,HeLa [2],30.2 µg/mL
CCCCOC(=O)CCCCCCC/C=C\CCCCCCC(C)O[C@@H]1O[C@H](CO)[C@@H](O)[C@H](O)[C@H]1O[C@@H]1O[C@H](CO)[C@@H](O)[C@H](O)[C@H]1O (stereo partly specified),Activity,Jurkat [10],0%
CC(CCCCCC/C=C\CCCCCCCC(=O)O)O[C@@H]1O[C@H](CO)[C@@H](O)[C@H](O)[C@H]1O[C@@H]1O[C@H](CO)[C@@H](O)[C@H](O)[C@H]1O (stereo partly specified),IC50,MDA-MB-231 [1],80 µM
CCCCCCCCCCCCCCCCO[C@@H]1O[C@H](COC(C)=O)[C@@H](O)[C@H](O)[C@H]1O[C@@H]1O[C@H](CO)[C@@H](O)[C@H](O)[C@H]1O,IC50,A549 [3],15 µg/mL
same,IC50,PANC-1 [4],> 100 µg/mL
same,IC50,PANC-1 [5],116 µg/mL
same,IC50,MCF7 [6],37.7 µg/mL
same,IC50,A-431,14.9 µg/mL
same,IC50 at 48 h,[7],> 320 µg/mL
same,IC50,HeLa [8],14.1 µg/mL
same,IC50 at 48 h,[9],> 320 µg/mL
same,IC50,HCT-116,23.2 µg/mL
CC(=O)OC[C@H]1O[C@H]2OC(C)/C=C/C/C=C/C/C=C\C/C=C/CCCCC(=O)O[C@H]3[C@H](O)[C@@H](O)[C@H](O[C@@H]2[C@@H](O)[C@@H]1O)O[C@@H]3COC(C)=O (stereo partly specified),IC50,K562,40 µg/mL
COC(=O)CCCCCCC/C=C\CCCCCCC(C)O[C@@H]1O[C@H](CO)[C@@H](O)[C@H](O)[C@H]1O[C@@H]1O[C@H](CO)[C@@H](O)[C@H](O)[C@H]1O (stereo partly specified),Activity,HPAC,58.4%
COC(=O)CCCCCCC/C=C\CCCCCCC(C)O[C@@H]1O[C@H](COC(C)=O)[C@@H](O)[C@H](O)[C@H]1O[C@@H]1O[C@H](COC(C)=O)[C@@H](O)[C@H](O)[C@H]1O (stereo partly specified),Activity,HPAC,25.5%
CCOC(=O)CCCCCCC/C=C\CCCCCCC(C)O[C@@H]1O[C@H](CO)[C@@H](O)[C@H](O)[C@H]1O[C@@H]1O[C@H](CO)[C@@H](O)[C@H](O)[C@H]1O (stereo partly specified),Activity,Jurkat [10],0%
same,Activity,HPAC,23.6%
CC(=O)OC[C@H]1O[C@H]2OC(C)CCC/C=C/C/C=C\CCCCCCCC(=O)O[C@H]3[C@H](O)[C@@H](O)[C@H](O[C@@H]2[C@@H](O)[C@@H]1O)O[C@@H]3COC(C)=O (stereo partly specified),IC50,KYSE-450,35 µg/mL
same,IC50,HeLa [2],476 µg/mL
same,IC50,A549 [14],22 µg/mL
same,IC50,ECa-109 cell line,15 µg/mL
COc1cccc2c1C(=O)c1c(O)c3c(c(O)c1C2=O)C[C@@](O)(C(=O)CO)C[C@@H]3O[C@H]1C[C@H](N)[C@H](O)[C@H](C)O1 [DOXORUBICIN],Activity,MCF7 [15],45%
same,IC50,LS180,0.7 µg/mL
same,IC50,A549 [3],9.5 µM
same,IC50,HT-29,1.6 µg/mL
same,IC50 at 24 h,[16],16.7 µg/mL
same,IC50,Caco-2,64.2 µg/mL
same,Activity,MDA-MB-231 [17],45%
same,IC50 at 24 h,[18],1.5 µg/mL
same,IC50,Jurkat [19],0.3 µM
same,IC50,THP-1 [20],3 µg/mL
same,IC50 at 72 h,[21],1 µg/mL
same,Activity,MDA-MB-231 [22],55%
same,Activity,MCF7 [23],40%
same,IC50,Jurkat [24],1 µM
same,IC50,HeLa [2],7.4 µg/mL
same,IC50,THP-1 [25],6.5 µg/mL
same,IC50,HeLa [8],13 µg/mL
same,IC50,LN-229,2 µg/mL
same,IC50 at 48 h,[26],6.1 µg/mL
same,IC50,THP-1 [27],15.7 µg/mL
